Test results as given in ChEMBL document CHEMBL1201862, “PubChem BioAssay data set” (2004).
Counter-ions that a name gives are not always drawn.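 Exposure lasted 48 hours, with cells grown in 96-well plates and compounds tested at five concentrations. Here, GI50 denotes the concentration required for 50% inhibition of growth.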 Activity calls are given as the source filed them. Cut-off read from the data, not from the text of the source: active = GI50 up to about 1.1 µM and inactive = higher. Where a SMILES comes first, the peptide text is derived from it. [ ]: non-standard residue; d: D form. The star is where a group is joined. ξ: configuration not given here. Propanoyl(3-(4-MeO-Ph)) = COc1ccc(CCC(=O)*)cc1; Thr(3ξ) = CC(O)[C@H](N)C(=O)O; dNMeL = CN[C@H](CC(C)C)C(=O)O; OBn = c1ccc(CO*)cc1; ξLac = CC(O)C(=O)O

Tests used:
Experiment in all cases: NCI tumour cell line growth inhibition, 48 h
HOP-92 = system: HOP-92
DU-145 = system: DU-145
SNB-75 = system: SNB-75
NCI-H226 = system: NCI-H226
HL-60 = system: HL-60
786-0 = system: 786-0
CCRF-CEM = system: CCRF-CEM
A498 = system: A498
K562 = system: K562
HOP-62 = system: HOP-62
OVCAR-3 = system: OVCAR-3
MDA-MB-231 = system: MDA-MB-231
KM12 = system: KM12
UO-31 = system: UO-31
M14 = system: M14
OVCAR-8 = system: OVCAR-8
SK-MEL-5 = system: SK-MEL-5
T47D = system: T47D
UACC-257 = system: UACC-257
SF-295 = system: SF-295
SF-268 = system: SF-268
BT-549 = system: BT-549
COLO 205 = system: COLO 205
OVCAR-5 = system: OVCAR-5
CAKI-1 = system: CAKI-1
SNB-19 = system: SNB-19
TK-10 = system: TK-10
SR = system: SR
MDA-N = system: MDA-N
SF-539 = system: SF-539
MDA-MB-435 = system: MDA-MB-435
PC-3 = system: PC-3
SN12C = system: SN12C
LOX IMVI = system: LOX IMVI
IGROV-1 = system: IGROV-1
NCI-H460 = system: NCI-H460
MCF7 = system: MCF7
UACC-62 = system: UACC-62
ACHN = system: ACHN
SK-OV-3 = system: SK-OV-3
A549 = system: A549
NCI-H23 = system: NCI-H23
SK-MEL-28 = system: SK-MEL-28
HCT-116 = system: HCT-116
EKVX = system: EKVX
OVCAR-4 = system: OVCAR-4
Malme-3M = system: Malme-3M
SK-MEL-2 = system: SK-MEL-2
HCT-15 = system: HCT-15
U-251 = system: U-251
RXF 393 = system: RXF 393
RPMI-8226 = system: RPMI-8226
NCI-H522 = system: NCI-H522
NCI/ADR-RES = system: NCI/ADR-RES
HCC 2998 = system: HCC 2998
SW-620 = system: SW-620
HT-29 = system: HT-29
MOLT-4 = system: MOLT-4
Hs-578T = system: Hs-578T
DMS-114 = system: DMS-114
KM-20L2 = system: KM-20L2

For `COc1ccc(CCC(=O)OC(C)[C@H](NC(=O)[C@@H](CC(C)C)N(C)C(=O)[C@@H]2CCCN2C(=O)C(C)O)C(=O)OCc2ccccc2)cc1` (some centres undefined) (H-[ξLac]P[dNMeL][Thr(3ξ)](Propanoyl(3-(4-MeO-Ph)))-OBn), the GI50 (HOP-92) was 19.1 µM (inactive), the GI50 (DU-145) was 62.5 µM (inactive) and the GI50 (SNB-75) was 19.9 µM (inactive). For the same compound, the GI50 (NCI-H226) was 30.4 µM (inactive), the GI50 (HL-60) was 28.2 µM (inactive) and the GI50 (786-0) was 35.2 µM (inactive). For the same compound, the GI50 (CCRF-CEM) was 26.9 µM (inactive), the GI50 (A498) was 28.7 µM (inactive) and the GI50 (K562) was 27.8 µM (inactive). The GI50 (HOP-62) was 99.8 µM (inactive), the GI50 (OVCAR-3) was 29.8 µM (inactive) and the GI50 (MDA-MB-231) was 19.3 µM (inactive). For the same compound, the GI50 (KM12) was 27.9 µM (inactive), the GI50 (UO-31) was 40.5 µM (inactive) and the GI50 (M14) was 16.9 µM (inactive). The GI50 (OVCAR-8) was 96.2 µM (inactive), the GI50 (SK-MEL-5) was 15.5 µM (inactive) and the GI50 (T47D) was 33.6 µM (inactive). For the same compound, the GI50 (UACC-257) was 18.4 µM (inactive), the GI50 (SF-295) was 35.2 µM (inactive) and the GI50 (SF-268) was 31.5 µM (inactive). For the same compound, the GI50 (BT-549) was 43.6 µM (inactive), the GI50 (COLO 205) was 19.5 µM (inactive) and the GI50 (OVCAR-5) was > 100 µM (inactive). The GI50 (CAKI-1) was > 100 µM (inactive), the GI50 (SNB-19) was 66.2 µM (inactive) and the GI50 (TK-10) was 18.9 µM (inactive). For the same compound, the GI50 (SR) was 34.4 µM (inactive), the GI50 (MDA-N) was 32.4 µM (inactive) and the GI50 (SF-539) was 24.6 µM (inactive). The GI50 (MDA-MB-435) was 21.8 µM (inactive), the GI50 (PC-3) was 30.5 µM (inactive) and the GI50 (SN12C) was 34.9 µM (inactive). The GI50 (LOX IMVI) was 17.9 µM (inactive), the GI50 (IGROV-1) was 30.5 µM (inactive) and the GI50 (NCI-H460) was 64.4 µM (inactive). For the same compound, the GI50 (MCF7) was 38.1 µM (inactive), the GI50 (UACC-62) was 19.2 µM (inactive) and the GI50 (ACHN) was 41.6 µM (inactive). The GI50 (SK-OV-3) was 84.1 µM (inactive), the GI50 (A549) was 52.4 µM (inactive) and the GI50 (NCI-H23) was 41.4 µM (inactive). The GI50 (SK-MEL-28) was 17.8 µM (inactive), the GI50 (HCT-116) was 43.7 µM (inactive) and the GI50 (EKVX) was 80.7 µM (inactive). The GI50 (OVCAR-4) was 73.8 µM (inactive), the GI50 (Malme-3M) was 20.8 µM (inactive) and the GI50 (SK-MEL-2) was 16.7 µM (inactive). The GI50 (HCT-15) was 32.3 µM, the GI50 (U-251) was 26.5 µM (inactive) and the GI50 (RXF 393) was 22.1 µM (inactive). The GI50 (RPMI-8226) was 28.7 µM (inactive), the GI50 (NCI-H522) was 24.3 µM (inactive) and the GI50 (NCI/ADR-RES) was 27.5 µM (inactive). The GI50 (HCC 2998) was 40.4 µM (inactive), the GI50 (SW-620) was 32.3 µM (inactive) and the GI50 (HT-29) was 36.5 µM (inactive). For the same compound, the GI50 (MOLT-4) was 24.3 µM (inactive) and the GI50 (Hs-578T) was 12.9 µM (inactive).
For `COc1ccc2c(=O)c(C)c(-c3ccccc3)oc2c1CN(C)C` [DIMEFLINE HYDROCHLORIDE], the GI50 (DMS-114) was > 100 µM (inactive), the GI50 (KM-20L2) was 58.2 µM (inactive) and the GI50 (A498) was 56.4 µM (inactive). The GI50 (K562) was 57.1 µM (inactive), the GI50 (OVCAR-3) was > 100 µM (inactive) and the GI50 (UO-31) was 85.7 µM (inactive). For the same compound, the GI50 (SK-MEL-5) was 55 µM (inactive), the GI50 (UACC-257) was > 100 µM (inactive) and the GI50 (SF-268) was > 100 µM (inactive). For the same compound, the GI50 (OVCAR-5) was 47.1 µM (inactive), the GI50 (TK-10) was 99.8 µM (inactive) and the GI50 (SR) was 84.5 µM (inactive). The GI50 (SN12C) was > 100 µM (inactive), the GI50 (LOX IMVI) was 69.3 µM (inactive) and the GI50 (NCI-H460) was 82.8 µM (inactive). For the same compound, the GI50 (SK-MEL-28) was > 100 µM (inactive), the GI50 (EKVX) was > 100 µM (inactive) and the GI50 (HCT-15) was over 100 µM. For the same compound, the GI50 (U-251) was > 100 µM (inactive), the GI50 (RXF 393) was 76 µM (inactive) and the GI50 (SW-620) was > 100 µM (inactive).
In the case of `O=C(O)Cc1ccccc1` [PHENYLACETIC ACID], the GI50 (HOP-92) is reported as 11.4 µM (inactive), the GI50 (DU-145) is reported as > 100 µM (inactive) and the GI50 (SNB-75) is reported as > 100 µM (inactive). The GI50 (NCI-H226) was > 100 µM (inactive), the GI50 (HL-60) was > 100 µM (inactive) and the GI50 (786-0) was > 100 µM (inactive). For the same compound, the GI50 (CCRF-CEM) was > 100 µM (inactive), the GI50 (A498) was > 100 µM (inactive) and the GI50 (K562) was > 100 µM (inactive). The GI50 (HOP-62) was > 100 µM (inactive), the GI50 (OVCAR-3) was > 100 µM (inactive) and the GI50 (MDA-MB-231) was > 100 µM (inactive). The GI50 (KM12) was > 100 µM (inactive), the GI50 (UO-31) was > 100 µM (inactive) and the GI50 (M14) was > 100 µM (inactive). The GI50 (OVCAR-8) was > 100 µM (inactive), the GI50 (SK-MEL-5) was > 100 µM (inactive) and the GI50 (T47D) was > 100 µM (inactive). For the same compound, the GI50 (UACC-257) was > 100 µM (inactive), the GI50 (SF-295) was 841 µM (inactive) and the GI50 (SF-268) was > 100 µM (inactive). The GI50 (BT-549) was > 1000 µM (inactive), the GI50 (COLO 205) was > 100 µM (inactive) and the GI50 (OVCAR-5) was > 100 µM (inactive). The GI50 (CAKI-1) was > 100 µM (inactive), the GI50 (SNB-19) was > 100 µM (inactive) and the GI50 (TK-10) was > 100 µM (inactive). The GI50 (SR) was > 1000 µM (inactive), the GI50 (MDA-N) was > 100 µM (inactive) and the GI50 (SF-539) was > 100 µM (inactive). The GI50 (MDA-MB-435) was > 100 µM (inactive), the GI50 (PC-3) was > 100 µM (inactive) and the GI50 (SN12C) was > 100 µM (inactive). For the same compound, the GI50 (LOX IMVI) was > 100 µM (inactive), the GI50 (IGROV-1) was > 100 µM (inactive) and the GI50 (NCI-H460) was > 100 µM (inactive). The GI50 (MCF7) was > 1000 µM (inactive), the GI50 (UACC-62) was > 100 µM (inactive) and the GI50 (ACHN) was > 100 µM (inactive). For the same compound, the GI50 (SK-OV-3) was > 100 µM (inactive), the GI50 (A549) was > 100 µM (inactive) and the GI50 (NCI-H23) was > 100 µM (inactive). The GI50 (SK-MEL-28) was > 100 µM (inactive), the GI50 (HCT-116) was > 100 µM (inactive) and the GI50 (EKVX) was > 100 µM (inactive). For the same compound, the GI50 (OVCAR-4) was > 100 µM (inactive), the GI50 (Malme-3M) was > 100 µM (inactive) and the GI50 (SK-MEL-2) was > 100 µM (inactive). The GI50 (HCT-15) was over 100 µM, the GI50 (U-251) was > 100 µM (inactive) and the GI50 (RXF 393) was > 100 µM (inactive). The GI50 (RPMI-8226) was > 100 µM (inactive), the GI50 (NCI-H522) was > 100 µM (inactive) and the GI50 (NCI/ADR-RES) was > 100 µM (inactive). For the same compound, the GI50 (HCC 2998) was > 100 µM (inactive), the GI50 (SW-620) was > 100 µM (inactive) and the GI50 (HT-29) was > 100 µM (inactive). For the same compound, the GI50 (MOLT-4) was > 100 µM (inactive) and the GI50 (Hs-578T) was > 100 µM (inactive).
